Assay results published in patent US20010004643A1, “Pharmaceutical composition with sotalol combination and their use in treatment of cardiac ailments” (priority 1999, published 2001).
Marks after values point to notes of the source that are not given here.

Legend:
[1] = tested on: ouabain induced arrhythmia (VT, VF, mortality); assay: Ouabain induced arrhythmia model in guinea pig; type: in vivo; details: for actual incidence of mortality (value in parenthesis): 60 min; for actual incidence of mortality (value in parenthesis) / actual incidence of VF (value in parenthesis) / actual incidence of VT (value in parenthesis): number of animals of the group; for % INCIDENCE OF MORTALITY: mortality at 60 min; for deaths due to conduction block (60 min), actual incidence (value in parenthesis) / deaths due to tachyarrhythmia (60 min), actual incidence (value in parenthesis): number of animals; for % INCIDENCE OF VF / % INCIDENCE OF VT: ouabain 240 μg/kg in three doses, observed one hour; for DEATHS DUE TO CONDUCTION BLOCK (60 MIN) Percentage / DEATHS DUE TO TACHYARRHYTHMIA (60 MIN) Percentage: percentage deaths out of total mortality
Text: Method: Guinea pigs (Dunken Hartley) of either sex weighing between 400 and 500 g were used for the study. The animals were anesthetized with urethane (1.25 g/kg. i.p.). The left common carotid artery and left jugular vein were cannulated for arterial blood pressure monitoring and intravenous access respectively. Lead II electrocardiogram, arterial blood pressure, mean arterial blood pressure (MABP), heart rate were monitored throughout the experiment.
After initial surgical preparations and allowing 30 minutes for the animal to stabilise the first dose of ouabain (90 μg/kg) was administered over a period of one minute. After the interval of thirty minutes, second dose of ouabain (60 μg/kg) was administered over a period of one minute. One minute after this dose, 0.5 ml saline (in control experiments) was administered over a period of one minute. After an interval of 10 minutes a third dose of ouabain (90 μg/kg) was administered over a period of one minute. […] The test compounds were administered to animals in test group in place of saline to evaluate their antiarrhythmic potential. From the ECG recordings, the incidence of VT, VF and mortality were recorded. The doses of ratios of sotalol isomers studied were 0.1, 0.5 and 2.5 mg/kg.
Interpretation of ECG recordings: Minor disturbance in rhythm was not considered while evaluating ventricular tachyarrhythmias. A run of more than 3 ventricular ectopic beats having wide QRS complexes associated with partial haemodynamic collapse was considered as Ventricular Tachycardia (VT). Total morphological irregularity of repetitive complexes for at least six cycles associated with complete haemodynamic collapse was considered as Ventricular Fibrillation (VF). Successful arrhythmia protection was defined as no occurrence of VT and VF from the injection of saline/test drug till the end of the experiment.
Statistics: Chi square test with continuity correction at 95% confidence limit was applied to find out the statistical significance between control and test groups for incidence of VT, VF and mortality. Whenever, any of the value in a cell was less than 5, Fischer's exact probability test was used.
Results: Different ratios of sotalol in the dose range from 0.02 mg/kg to 12.5 mg/kg were studied in individual groups of animals. In all 18 groups were studied and at least 6 animals were used in each group. In control animals ouabain 240 μg/kg in three divided doses induced reproducible ventricular tachyarrhythmias in guinea pigs. It was observed that ventricular arrhythmias appeared after the administration of the third dose. Guinea pigs which responded early i.e. before or within 1 min. of administration of the second dose, were considered early responders and were not included in the study. […] In the study, control experiments were carried out randomly interspersed in test groups. Among the 42 control animals the incidence of VT was 81%, incidence of VF was 71.4% and the incidence of mortality at 60 minutes was 61.9%.

[2] = tested on: beta adrenergic blockade, isolated right auricle preparation of rabbit; assay: Beta blocking potency (pA2 against isoprenaline) in isolated rabbit right auricle; details: isoprenaline chronotropic response, Schild's plot, listed as 4:1
Protocol: Estimation of the beta blockade of various ratios of d- and l- isomers of sotalol was carried out in the isolated right auricle preparation of rabbit. The spontaneously beating right atrium was dissected and mounted in a 20 ml tissue bath. The resting tension on the atria was set at 1 g. The contractions were recorded using a force displacement transducer. The spontaneous contractions of the right atria were recorded isometrically and the heart rate was obtained as a derived parameter using a ratemeter that gave the output in beats per minute. Six different ratios of d and l isomers were investigated (1:1, 2:1, 3:1, 4:1, 5:1 and 1:0). Dose-response-curves (DRC) for isoprenaline in the isolated atria, using the chronotropic response were determined by cumulative addition of isoprenaline. The pA2 values of each of the ratios were estimated using the classical Schild's plot (Schild, 1957) and the values are shown in Table 1.

[3] = guinea pig, in vivo, listed as 4:1 ratio (d:l)

With `CC(C)NCC(O)c1ccc(NS(C)(=O)=O)cc1` (stereo not drawn) [4:1 RATIO, N-[4-[1-hydroxy-2-[(1-methylethyl)amino]ethyl]phenyl] methane sulfonamide] the “actual incidence of mortality (value in parenthesis)” value (“actual incidence of mortality” below) ([1]; 0.5 mg/kg) was “(2)”, the “% INCIDENCE OF MORTALITY” value ([1]; 0.5 mg/kg) was 33.3% and the “deaths due to conduction block (60 min), actual incidence (value in parenthesis)” value ([1]; 0.5 mg/kg) was “(1)”. The “deaths due to tachyarrhythmia (60 min), actual incidence (value in parenthesis)” value ([1]; 0.5 mg/kg) was “(1)”, the “actual incidence of VF (value in parenthesis)” value (shortened to “actual incidence of VF”) ([1]; 0.5 mg/kg) was “(6)” and the “actual incidence of VT (value in parenthesis)” value (from here on “actual incidence of VT”) ([1]; 0.5 mg/kg) was “(6)”. The “% INCIDENCE OF VF” value ([1]; 0.5 mg/kg) was 100.0%, the “% INCIDENCE OF VT” value ([1]; 0.5 mg/kg) was 100.0% and the “DEATHS DUE TO CONDUCTION BLOCK (60 MIN) Percentage” value ([1]; 0.5 mg/kg) was 50.0%. The “DEATHS DUE TO TACHYARRHYTHMIA (60 MIN) Percentage” value ([1]; 0.5 mg/kg) was 50.0%, the “protection against VF” value ([1]; 2.5 mg/kg) was “some protection” and the “protection against ouabain induced VT” value ([1]; 2.5 mg/kg) was “some protection”. For the same compound, the “actual incidence of mortality” value ([1]; 2.5 mg/kg) was “(2)”, the “protection against arrhythmias (VT and VF)” value ([1]; 2.5 mg/kg, listed as 4:1) was “could not protect” and the “% INCIDENCE OF MORTALITY” value ([1]; 2.5 mg/kg) was 33.3%. For the same compound, the “% INCIDENCE OF MORTALITY” value ([1]; 2.5 mg/kg, listed as 4:1) was 33.3%, the “deaths due to conduction block (60 min), actual incidence (value in parenthesis)” value ([1]; 2.5 mg/kg) was “(2)” and the “deaths due to tachyarrhythmia (60 min), actual incidence (value in parenthesis)” value ([1]; 2.5 mg/kg) was “(0)”. For the same compound, the “actual incidence of VF” value ([1]; 2.5 mg/kg) was “(2)”, the “actual incidence of VT” value ([1]; 2.5 mg/kg) was “(2)*” and the “% INCIDENCE OF VF” value ([1]; 2.5 mg/kg) was 33.3%. For the same compound, the “% INCIDENCE OF VT” value ([1]; 2.5 mg/kg) was 33.3%, the “% INCIDENCE OF VF” value ([1]; 2.5 mg/kg, listed as 4:1) was 33.3% and the “% INCIDENCE OF VT” value ([1]; 2.5 mg/kg, listed as 4:1) was 33.3%. The “DEATHS DUE TO CONDUCTION BLOCK (60 MIN) Percentage” value ([1]; 2.5 mg/kg) was 100.0%, the “DEATHS DUE TO TACHYARRHYTHMIA (60 MIN) Percentage” value ([1]; 2.5 mg/kg) was 00.0% and the “protection against arrhythmias (VT and VF)” value ([1]; 12.5 mg/Kg) was “could protect”. The “actual incidence of mortality” value ([1]; 12.5 mg/kg) was “(4)”, the “% INCIDENCE OF MORTALITY” value ([1]; 12.5 mg/kg) was 66.6% and the “% INCIDENCE OF MORTALITY” value ([1]; 12.5 mg/kg, listed as 4:1 ratio) was 66.6%. For the same compound, the “deaths due to conduction block (60 min), actual incidence (value in parenthesis)” value ([1]; 12.5 mg/kg) was “(3)”, the “deaths due to tachyarrhythmia (60 min), actual incidence (value in parenthesis)” value ([1]; 12.5 mg/kg) was “(1)” and the “actual incidence of VF” value ([1]; 12.5 mg/kg) was “(0)*”. For the same compound, the “actual incidence of VT” value ([1]; 12.5 mg/kg) was “(0)*”, the “% INCIDENCE OF VF” value ([1]; 12.5 mg/kg) was 00.0% and the “% INCIDENCE OF VT” value ([1]; 12.5 mg/kg) was 00.0%. For the same compound, the “DEATHS DUE TO CONDUCTION BLOCK (60 MIN) Percentage” value ([1]; 12.5 mg/kg) was 75.0%, the “DEATHS DUE TO TACHYARRHYTHMIA (60 MIN) Percentage” value ([1]; 12.5 mg/kg) was 25.0% and the mortality ([1]; effective dose of 12.5 mg/kg) was “significantly high”. The “dose at which complete protection against VT was observed” value [1, 3] was 12.5 mg/kg, the “dose that completely protected against VF” value [1, 3] was 12.5 mg/kg and the “pA2 Mean” value [2] was 6.01.
